Source: US11236056B2, “Small molecules and methods of reducing injuries caused by radiation or chemicals” (priority 2019, dated 2022)
≈ marks a conversion by molar mass, not a printed value. Read-outs that look alike come from different tables or passages of the source.

Experiments:
[1] = tested on: NIH-Swiss female mice; assay: Radioprotection compared with amifostine, 45 min before or after TBI (Example 4); format: in vivo
Method: NIH-Swiss female mice were divided into 8 groups (10 mice/group). (A) Forty-five min prior to 7.5 Gy TBI, mice were treated by i.p. injection with UTS-1401 (75 mg/kg), amifostine (75 mg/kg) or vehicle, respectively. Mice in control group were not irradiated. (B) Same procedure as in (A) except that mice were treated by testing agents forty-five min after 7.5 Gy TBI.
FIG. 4 is a graph of the effects of UTS-1401 and amifostine on TBI induced in NIH-Swiss mice mortality administered 45 minutes before TBI determined according to Example 4.
FIG. 5 is a graph of the effects of UTS-1401 and amifostine on TBI induced in NIH-Swiss mice mortality administered 45 minutes after TBI determined according to Example 4.

[2] = Solubility determination of UTS-14 compounds; format: physicochemical; conditions: thermodynamic from solid
Method: If the compound was not dissolved, more solvent was added and the solution was watched again after one day. This procedure was continued until the compound was completely dissolved, after which the solubility was calculated.

[3] = tested on: NIH-Swiss female mice; assay: Radioprotection against TBI induced mortality, 30 min pretreatment (Example 2); format: in vivo; conditions: 80 mg/kg i.p. 30 min prior to 7.5 Gy TBI
Method: NIH-Swiss female mice were divided into 5 groups (8 mice/group). Thirty min prior to 7.5 Gy TBI, mice were treated by i.p. injection with UTS-1401, -1402, and -1403 (80 mg/kg each) or vehicle, respectively. Mice in control group were not irradiated. Definition of “death” used in this study was when a mouse actually died or when a mouse lost 20% or more of its bodyweight.
FIG. 2 is a graph of the radioprotection of UTS-1401, -1402, and -1403 determined according to Example 2.

[4] = tested on: NIH Swiss female mice; assay: Radioprotection, 24 hr pretreatment, female mice (Example 5); format: in vivo
Method: Only 8.5 Gy results are summarized here.
FIG. 7 is a graph of the effect of UTS-1401 on TBI induced mortality in NIH-Swiss mice administered at 150 mg/kg determined according to Example 5.

[5] = tested on: H9C2 cardiomyocytes; assay: Protection against doxorubicin-induced damage on cardiomyocytes in vitro (MTT assay); format: cell-based; conditions: 30 min pretreatment before DOX, assayed 3 days later
Method: Briefly, myocardiocytes H9C2 were cultured in high glucose DMEM with 10% bovine calf serum and 10,000 cells per well of cardiomyocytes were treated by DOX with and without the 30 min pretreatment of UTS-1401. The survival rates were assayed by MTT assay 3 days later.
FIG. 8 is a graph showing protection of UTS-1401 on H9C2 cardiomyocytes against DOX-induced determined according to Example 6.

[6] = tested on: NIH-Swiss female mice; assay: Drug dose-dependent radioprotection against TBI induced mortality, 30 min pretreatment (Example 3); format: in vivo; conditions: 25 or 75 mg/kg i.p. 30 min prior to 7.5 Gy TBI
Method: NIH-Swiss female mice were divided into 4 groups (8 mice/group). Thirty min prior to 7.5 Gy TBI, mice were treated by i.p. injection with UTS-1401 (0, 2, or 6 mg/mL or 0, 25, or 75 mg/kg) or vehicle, respectively. Mice in control group were not irradiated. Definition of “death” used in this study was when a mouse actually died or when a mouse lost 20% or more of its bodyweight.
FIG. 3 is a graph of the dose-dependent effect of UTS-1401 on TBI induced mortality in NIH-Swiss mice determined according to Example 3.

[7] = tested on: NIH Swiss male mice; assay: Radioprotection, 24 hr pretreatment, male mice (Example 5); format: in vivo
Method: NIH Swiss male mice were studied for the radioprotective effects of UTS-1401 at 50, 100, and 150 mg/kg respectively by i.p. injection at 24 hr before TBI at 6.5, 7.5, and 8.5 Gy. […] These observations indicate that UTS-1401 is effective as a radioprotector for male NIH Swiss mice against TBI of both 7.5 and 8.5 Gy.
FIG. 6 is a graph of the effect of UTS-1401 on TBI induced mortality in NIH-Swiss mice administered at 100 mg/kg determined according to Example 5.

[8] = 75 mg/kg i.p. 45 min after 7.5 Gy TBI
[9] = 75 mg/kg i.p. 45 min before 7.5 Gy TBI
[10] = water, rm temp, read-out: solubility in water
[11] = 50, 100, and 150 mg/kg 24 hr before 8.5 Gy TBI

## NCCCNCCSP(=O)(O)O [amifostine, Amifostine, reference compound]
[1]; [8]
  survival rate of mice: did not increase the survival rate
[1]; [9]
  survival rate of mice: increased the survival rate

## CS(=O)(=O)Cc1cc(C(=O)O)no1 [UTS-1403]
[2]; Hank's Balanced Salt Solution (HBSS), saline or isotonic, read-out: solubility in Hank's Balanced Salt Solution (HBSS)
  solubility: ~15.8 mg/mL
[2]; [10]
  solubility: ~9.1 mg/mL (≈ 44.3 mM)
[3]
  survival of irradiated mice: increased the survival

## C[S+]([O-])Cc1cc(C(=O)O)no1 (stereo not shown) [UTS-1402]
[2]; [10]
  solubility: ~16 mg/mL (≈ 84.6 mM)
[3]
  survival of irradiated mice: increased the survival

## CSCc1cc(C(=O)O)no1 [UTS-1401]
[4]; [11]
  dose dependence of radioprotective effects: essentially the same for all 3 doses
  radioprotective effects / mortality: significant radioprotective effects and reduced the mortality
[4]; 24 hr before 8.5 Gy TBI
  optimal dose: around 50 mg/kg
[2]; saline or isotonic, saline, 37° C., read-out: solubility in saline at 37° C.
  solubility: 12 mg/mL (≈ 69.3 mM)
[2]; [10]
  solubility: ~9.5 mg/mL (≈ 54.9 mM)
[1]; [8]
  survival rate of mice: significantly increased the survival rate
[1]; [9]
  survival rate of mice: increased the survival rate
[1]; 75 mg/kg i.p. 45 min before or after 7.5 Gy TBI
  radioprotection as compared with amifostine: better radioprotection as compared with amifostine
[5]
  protection of cardiomyocytes (survival rates by MTT): protected cardiomyocytes significantly
[6]
  survival rate of mice: increased the survival rate of mice in a dose-dependent manner
[7]; 50, 100, 150 mg/kg i.p. 24 hr before 7.5 Gy TBI
  survival rates: greatly increased
[7]; 50, 100, 150 mg/kg i.p. 24 hr before 7.5 and 8.5 Gy TBI
  dose dependence of survival rates: drug-dose dependent
[7]; 50, 100, 150 mg/kg i.p. 24 hr before 8.5 Gy TBI
  survival rates: greatly increased
[7]; i.p. 24 hr before TBI
  day from which average body wt of surviving pretreated mice started to recover: ~20 days
[3]
  survival of irradiated mice: increased the survival
